Source: patent US20230092490A1, “PHARMACEUTICAL COMPOSITIONS COMPRISING DASATINIB ANHYDROUS AND USES THEREOF” (ZENTIVA K.S., priority 2020, published 2023)
Read-outs that look alike come from different tables or passages of the source.

Tests used:
[1] = Oral bioavailability and pharmacokinetics of dasatinib monohydrate (background); conditions: human, in vivo, read-out: subjects exhibiting atypical pharmacokinetic profiles (reduced bioavailability, likely achlorhydria or hypochlorhydria)
[2] = pH 2.6; cited from earlier work
[3] = in vivo; cited from earlier work
[4] = cited from earlier work
[5] = Preliminary bioequivalence study of DA1 vs. RP in eighty healthy subjects; assay type: in vivo, human; conditions: total study population
Method: First, a preliminary bioequivalence study assessed in-vivo absorption of DA1 and RP. This bioequivalence study and its results are summarized in Example 2, below, and data are shown in FIG. 3 to FIG. 6 for four exemplary subjects A to D in that study.
Example 3, together with corresponding Table 4, presents additional results from the clinical study of Example 2, comparing the bioavailability of DA1 vs RP.
A preliminary bioequivalence study in eighty (80) healthy subjects was conducted to test the in-vivo absorption of RP and DA1.
Additional data from the bioequivalence study of Example 2, which compared the bioequivalence of DA1 against the reference product (“RP”) are summarised in Table 4 below.

[6] = administered 10 hours following the H2 antagonist famotidine
[7] = co-administration with aluminium hydroxide or magnesium hydroxide
[8] = single 100 mg dose 22 hours following a 4-day 40-mg omeprazole dose at steady state

| percentage of subjects with atypical pharmacokinetic profiles [1] [%] | absorption across all subjects [5] | Compound | thermodynamic (equilibrium) solubility [2] [mg/mL] | time at which peak concentration is reached [3] [h] | reduction of AUC [4, 6] [%] | reduction of Cmax [4, 6] [%] | reduction in Cmax [4, 7] [%] | reduction of the area under the curve (AUC) [4, 7] [%] | reduction of AUC [4, 8] [%] | reduction of Cmax [4, 8] [%] |
| --- | --- | --- | --- | --- | --- | --- | --- | --- | --- | --- |
| 3.5 to 7.5 |  | Cc1nc(Nc2ncc(C(=O)Nc3c(C)cccc3Cl)s2)cc(N2CCN(CCO)CC2)n1 [dasatinib monohydrate, N-(2-chloro-6-methylphenyl)-2-[[6-[4-(2-hydroxyethyl)-1-piperazinyl]-2-methyl-4-pyrimidinyl]amino]-5-thiazolecarboxamide] | 18.4 | 1 to 2 | 61 | 63 | 58 | 55 | 43 | 42 |
|  | absorbed in all subjects | Cc1nc(Nc2ncc(C(=O)Nc3c(C)cccc3Cl)s2)cc(N2CCN(CCO)CC2)n1 [Dasatinib anhydrous, N-(2-chloro-6-methylphenyl)-2-[[6-[4-(2-hydroxyethyl)-1-piperazinyl]-2-methyl-4-pyrimidinyl]amino]-5-thiazolecarboxamide] |  |  |  |  |  |  |  |  |
